Results taken from paper PMC10135378, “Synthesis of Novel N-Heterocyclic Carbene-Ruthenium (II) Complexes, “Precious” Tools with Antibacterial, Anticancer and Antioxidant Properties” (Antibiotics, 2023).

Experiments:
human topoisomerase I = biological target: T1, human topoisomerase I (Homo sapiens, UniProt P11387); experiment: hTopo I relaxation assay; type: biochemical; settings: 10 µM, 2 h at 37 °C, supercoiled pHOT1 substrate
T1 construct: purchased TopoGEN, Port Orange, FL, USA
T1 sequence (P11387 1-765): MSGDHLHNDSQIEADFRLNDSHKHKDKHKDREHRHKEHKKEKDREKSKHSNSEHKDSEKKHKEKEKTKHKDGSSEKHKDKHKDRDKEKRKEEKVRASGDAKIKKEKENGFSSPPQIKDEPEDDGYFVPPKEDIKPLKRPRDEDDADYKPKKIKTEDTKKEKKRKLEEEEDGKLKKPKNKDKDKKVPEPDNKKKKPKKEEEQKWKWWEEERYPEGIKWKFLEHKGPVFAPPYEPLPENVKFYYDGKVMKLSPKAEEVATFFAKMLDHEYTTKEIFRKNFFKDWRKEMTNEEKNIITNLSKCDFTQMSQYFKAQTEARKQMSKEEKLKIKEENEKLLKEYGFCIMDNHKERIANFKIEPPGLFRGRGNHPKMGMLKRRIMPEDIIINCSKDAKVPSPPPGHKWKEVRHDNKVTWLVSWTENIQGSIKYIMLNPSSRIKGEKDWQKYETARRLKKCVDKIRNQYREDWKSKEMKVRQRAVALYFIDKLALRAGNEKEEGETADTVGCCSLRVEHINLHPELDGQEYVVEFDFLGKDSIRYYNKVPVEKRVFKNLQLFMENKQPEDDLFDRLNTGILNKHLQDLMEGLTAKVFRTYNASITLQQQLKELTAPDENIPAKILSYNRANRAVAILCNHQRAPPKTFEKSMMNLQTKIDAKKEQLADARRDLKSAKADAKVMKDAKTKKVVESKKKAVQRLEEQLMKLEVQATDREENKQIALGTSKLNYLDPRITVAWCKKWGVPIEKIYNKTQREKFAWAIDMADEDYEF
From the text: We performed the hTopo I relaxation assay using as a substrate the supercoiled plasmid pHOT1 and exposing the enzyme to our selected complexes or vehicle. […] Indeed, in lanes 4 and 5, corresponding to the enzymatic reactions in the presence of complexes RANHC-V or -VI, only the supercoiled DNA was present, noticeable as a single band in the lower portion of the agarose gel. Contrarily, in the CTRL (vehicle) reaction (Figure 3, lane 3), multiple bands related to the relaxed DNA products were detected.
hTopoI relaxation assays were done using the supercoiled pHOT1 as substrate, with the recombinant hTopoI (TopoGEN, Port Orange, FL, USA) and compounds RANHC-V and -VI or DMSO (CTRL) following the manufacturer’s protocol (TopoGEN, Port Orange, FL, USA), with some changes.
Figure 3 Human topoisomerase I […] assay. hTopo I was incubated with the vehicle alone (CTRL) or with the tested complexes RANHC-V and -VI at 10 µM for 2 h at 37 °C, using the supercoiled DNA pHOT1 as substrate. 1, relaxed DNA marker; 2, pHOT1; 3, CTRL (DMSO); 4 and 5, Ru-NHC complexes RANHC-V and -VI (10 µM), respectively. The image is representative of three separate experiments.

human topoisomerase II = biological target: T2, human topoisomerase II (Homo sapiens, UniProt P11388); experiment: hTopo II decatenation assay; type: biochemical; settings: 10 and 50 µM, 2 h at 37 °C, kDNA substrate
T2 construct: purchased TopoGEN, Port Orange, FL
Procedure: In Figure 4, only the results obtained at 50 μM concentration are reported (the same result was obtained at 10 μM) and as visible; under RANHC-V and -VI exposure, two bands related to the decatenation products at the bottom of the gel were detected (Figure 4, lanes 5 and 6), similarly to the CTRL reaction (Figure 4, lane 4).
Similarly, hTopoII decatenation assays were carried out incubating the kinetoplast DNA (kDNA) substrate with the hTopoII (TopoGEN, Port Orange, FL) and compounds RANHC-V and -VI or DMSO (CTRL) following the manufacturer’s procedures (TopoGEN, Port Orange, FL, USA), with some changes.
Figure 4 Human topoisomerase II decatenation assay. hTopo II was incubated with the vehicle alone (CTRL) or with the tested complexes RANHC-V and -VI at 50 µM for 2 h at 37 °C, using the kinetoplast DNA (kDNA) as the substrate. 1, linear DNA marker; 2, decatenated DNA marker; 3, kinetoplast DNA; 4, CTRL (DMSO); 5 and 6, Ru-NHC complexes RANHC-V and -VI (50 µM), respectively. The image is representative of three separate experiments.

MDA-MB-231 cells = experiment: TUNEL assay, apoptosis; type: cell-based, human; settings: complexes at their IC50 values, 24 h
Procedure: Thus, using the TUNEL assay we determined whether the Ru-NHC complexes RANHC-V and -VI were able to trigger apoptosis in the MDA-MB-231 cells. The latter were first exposed to the Ru complexes, used at their IC50 values for 24 h, and then subjected to the rTdT enzyme, as indicated in the experimental section.
A TUNEL assay was used for cells apoptosis detection, following the manufacturer’s protocols (CF™488A TUNEL Assay Apoptosis Detection Kit, Biotium, Hayward, CA, USA), with some changes. Briefly, cells were seeded and then processed, as described. DAPI (0.2 μg/mL, Sigma Aldrich, Milan, Italy) staining was adopted for nuclei. A fluorescence microscope (Leica DM 6000) was used for fluorescence detection (20x magnification). LAS-X software was used to acquire and process all the images that are representative of three different experiments.
Figure 5 TUNEL assay. MDA-MB-231 breast cancer cells were treated with Ru-NHC complexes RANHC-V and -VI at their IC50 values or with the vehicle (CTRL) for 24 h. Then, cells were incubated with rTdT enzyme and then observed and imaged under an inverted fluorescence microscope at 20× magnification (see Materials and Methods section). Panels (A): DAPI (λex/λem = 350/460 nm); Panels (B): CF^TM488A (λex/λem = 490/515 nm); Panels (C): show the overlay. Fields are representative of three independent experiments.

T2 sequence (P11388 whole entry): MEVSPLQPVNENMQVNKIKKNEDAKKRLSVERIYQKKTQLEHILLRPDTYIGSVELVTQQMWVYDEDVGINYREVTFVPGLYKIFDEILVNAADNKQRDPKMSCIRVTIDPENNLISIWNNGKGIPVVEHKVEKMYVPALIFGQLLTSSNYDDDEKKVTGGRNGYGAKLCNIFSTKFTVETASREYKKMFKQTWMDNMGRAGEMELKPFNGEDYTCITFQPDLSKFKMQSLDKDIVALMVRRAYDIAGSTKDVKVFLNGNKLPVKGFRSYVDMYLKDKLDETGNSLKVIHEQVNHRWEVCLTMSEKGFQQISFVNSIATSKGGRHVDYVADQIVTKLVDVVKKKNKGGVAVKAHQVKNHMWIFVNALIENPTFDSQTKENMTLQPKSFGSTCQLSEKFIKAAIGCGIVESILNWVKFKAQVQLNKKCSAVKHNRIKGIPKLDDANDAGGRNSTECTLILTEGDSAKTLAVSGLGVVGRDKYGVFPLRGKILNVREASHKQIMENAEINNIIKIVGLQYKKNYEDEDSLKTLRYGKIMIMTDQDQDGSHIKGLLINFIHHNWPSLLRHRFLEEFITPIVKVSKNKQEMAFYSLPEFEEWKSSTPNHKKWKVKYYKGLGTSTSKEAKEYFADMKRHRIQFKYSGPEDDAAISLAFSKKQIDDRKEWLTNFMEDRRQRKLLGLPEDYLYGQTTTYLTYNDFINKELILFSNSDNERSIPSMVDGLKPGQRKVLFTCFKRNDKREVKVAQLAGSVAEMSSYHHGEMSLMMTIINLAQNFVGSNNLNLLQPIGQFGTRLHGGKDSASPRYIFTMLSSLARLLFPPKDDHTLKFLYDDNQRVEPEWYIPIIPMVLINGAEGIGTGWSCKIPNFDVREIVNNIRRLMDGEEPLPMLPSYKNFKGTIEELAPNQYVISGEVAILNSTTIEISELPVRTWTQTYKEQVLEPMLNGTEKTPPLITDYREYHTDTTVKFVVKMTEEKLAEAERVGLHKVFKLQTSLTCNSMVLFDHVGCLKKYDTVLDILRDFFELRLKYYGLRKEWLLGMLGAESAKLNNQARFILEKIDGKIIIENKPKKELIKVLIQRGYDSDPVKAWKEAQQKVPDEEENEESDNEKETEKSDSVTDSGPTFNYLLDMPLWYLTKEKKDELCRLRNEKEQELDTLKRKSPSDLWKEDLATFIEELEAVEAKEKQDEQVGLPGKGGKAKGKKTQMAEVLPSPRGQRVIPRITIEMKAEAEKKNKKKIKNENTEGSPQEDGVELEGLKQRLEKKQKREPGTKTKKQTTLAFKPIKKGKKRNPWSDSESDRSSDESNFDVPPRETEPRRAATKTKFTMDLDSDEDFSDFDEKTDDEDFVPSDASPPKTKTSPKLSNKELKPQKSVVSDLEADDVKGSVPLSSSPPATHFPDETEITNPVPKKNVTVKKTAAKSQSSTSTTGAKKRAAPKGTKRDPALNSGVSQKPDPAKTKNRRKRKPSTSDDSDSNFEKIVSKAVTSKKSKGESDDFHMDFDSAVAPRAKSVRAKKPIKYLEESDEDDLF

inhibition of hTopo I activity (human topoisomerase I) | inhibition of hTopo II activity (human topoisomerase II) | SMILES | apoptosis (TUNEL) (MDA-MB-231 cells)
totally inhibit | absence of any inhibitory activity | COC(Cn1c(Cl)c(Cl)n(C)[c]1=[Ru]([Cl])[Cl])c1ccccc1.Cc1ccc(C(C)C)cc1 (stereo not drawn) [RANHC-V] | TUNEL-positive
totally inhibit | absence of any inhibitory activity | COC(Cn1[c](=[Ru]([Cl])[Cl])n(C)c2ccccc21)c1ccccc1.Cc1ccc(C(C)C)cc1 (stereo not drawn) [RANHC-VI] | TUNEL-positive
